# Reference: patent publication US20230091225A1, “Bifunctional chimeric heterocyclic compounds for targeted degradation of androgen receptors and use thereof” (HINOVA PHARMACEUTICALS INC., priority 2019, published 2023)
# Like-named read-outs stand apart in the source and are kept apart here.
# Molecular target: T1, androgen receptor (AR) (Homo sapiens, UniProt P10275)
# T1 sequence (P10275 1-920): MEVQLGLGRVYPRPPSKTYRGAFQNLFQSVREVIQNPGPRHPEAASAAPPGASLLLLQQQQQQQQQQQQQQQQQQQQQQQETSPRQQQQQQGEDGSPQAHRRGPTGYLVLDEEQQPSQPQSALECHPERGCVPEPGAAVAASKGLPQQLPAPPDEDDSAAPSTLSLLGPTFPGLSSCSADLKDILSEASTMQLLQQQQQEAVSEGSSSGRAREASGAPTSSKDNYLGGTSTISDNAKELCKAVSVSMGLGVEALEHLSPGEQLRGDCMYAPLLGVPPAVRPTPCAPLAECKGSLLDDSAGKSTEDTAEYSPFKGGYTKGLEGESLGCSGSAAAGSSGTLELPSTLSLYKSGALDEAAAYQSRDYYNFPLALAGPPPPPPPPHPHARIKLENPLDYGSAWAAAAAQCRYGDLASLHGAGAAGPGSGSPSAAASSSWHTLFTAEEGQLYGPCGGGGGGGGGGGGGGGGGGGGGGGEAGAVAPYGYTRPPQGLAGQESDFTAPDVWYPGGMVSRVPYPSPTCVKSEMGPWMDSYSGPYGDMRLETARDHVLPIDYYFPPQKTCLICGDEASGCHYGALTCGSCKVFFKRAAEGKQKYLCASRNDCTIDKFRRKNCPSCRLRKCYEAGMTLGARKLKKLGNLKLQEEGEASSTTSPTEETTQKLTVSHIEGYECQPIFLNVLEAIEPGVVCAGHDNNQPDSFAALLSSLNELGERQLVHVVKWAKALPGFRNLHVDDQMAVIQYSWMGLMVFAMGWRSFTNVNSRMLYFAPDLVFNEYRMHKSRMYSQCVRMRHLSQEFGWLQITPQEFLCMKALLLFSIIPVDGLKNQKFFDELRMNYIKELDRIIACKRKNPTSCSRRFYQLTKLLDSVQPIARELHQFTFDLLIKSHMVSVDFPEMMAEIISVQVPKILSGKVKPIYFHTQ
# Assay: Degradation of androgen receptor (AR) protein in VCaP cells by ELISA
# Type: cell-based
# Settings: for DC50: read-out: DC50; for Dmax: VCaP
# [1] = AR degradation, VCaP cells, 16 h, ELISA, Table 3-1
# [2] = AR degradation, VCaP cells, 16 h, ELISA, Table 3-1, read-out: Dmax (%)
SMILES,DC50 [1] [nM],Dmax [2] [%],other results
CC1(C)[C@H](Oc2ccc(C#N)c(Cl)c2)C(C)(C)[C@H]1N1Cc2nc(C#C[C@H]3CC[C@H](N4CCN(c5ccc6c(c5)C(=O)N(C5CCC(=O)NC5=O)C6=O)CC4)CC3)ccc2C1=O (stereo partly drawn) [Compound 325],< 10,> 80,
"N#Cc1ccc(OC2CCC(NC(=O)c3ccc(N4CCC5(CC4)CN(CC4CCN(c6cc7c(cc6F)C(=O)N(C6CCC(=O)NC6=O)C7=O)CC4)C5)nn3)CC2)cc1C(F)(F)F (stereo not drawn) [Compound 285, N-((1r,4r) 4-(4-cyano-3-(trifluoromethyl)phenoxy)cyclohexyl)-6-(2-((1-(2,6-dioxopiperidin-3-yl)-6-fluoro-1,3-dioxoisoindolin-5-yl)piperidine-4-yl)methyl)-2,7-diazaspiro [3.5] nonan-7-yl)pyridazine-3-formamide]",,,Dmax (%): ++++ (key: A: >80%; B: 79%-50%; C: 49%-25%; D: <25%); DC50: < 10 nM
"CC(=O)O[C@@H]1CC(C(=O)N[C@@H](C)c2ccc(-c3scnc3C)cc2)N(C(=O)[C@@H](NC(=O)COCCN2CCN(c3ccc4c(c3)CN([C@H]3C(C)(C)[C@H](Oc5ccc(C#N)c(Cl)c5)C3(C)C)C4=O)CC2)C(C)(C)C)C1 (stereo partly drawn) [Compound 2, (3R,5S)-1-((S)-2-(2-(2-(4-(2-((1R,3R)-3-(3-chloro-4-cyanophenoxy)-2,2,4,4-tetramethylcyclobutyl)-1-oxoisoindolin-5-yl)piperazin-1-yl)ethoxy)acetylamino)-3,3-dimethylbutyryl)-5-(((S)-1-(4-(4-methylthiazol-5-yl)phenyl)ethyl)carbamoyl) pyrrolidin-3-yl acetate]",,,"inhibition at 0.1 µM (percentage of degraded AR at 100 nM, VCaP cells, 16 h, ELISA, read-out: % degradation): < 25%"
"N#Cc1ccc(O[C@H]2CC[C@H](NC(=O)c3ccc(N4CC5(CC(N6CCN(c7cc8c(cc7F)C(=O)N(C7CCC(=O)NC7=O)C8=O)CC6)C5)C4)nn3)CC2)cc1Cl (stereo partly drawn) [Compound 129, N-((1r,4r)-4-(3-chloro-4-cyanophenoxy)cyclohexyl)-6-(6-(4-(2-(2,6-dioxopiperidin-3-yl)-6-fluoro-1,3-dioxoisoindolin-5-yl)piperazin-1-yl)-2-azaspiro[3.3]heptan-2-yl)pyridazine-3-amide]",< 10,> 80,
N#Cc1ccc(OC2CCC(NC(=O)c3cnc(N4CCN(CC5[C@H]6CN(c7cc8c(cc7F)C(=O)N(C7CCC(=O)NC7=O)C8=O)C[C@@H]56)CC4)nc3)CC2)cc1Cl (stereo partly drawn) [Compound 128],,,Dmax (%): +++ (key: ++++: >80%; +++: 80%-60%; ++: 60%-40%; +: <40%); DC50: 10 to 100 nM
C[C@H]1CN(c2ccc(C(=O)N[C@H]3CC[C@H](Oc4ccc(C#N)c(Cl)c4)CC3)nn2)CCN1C[C@H]1[C@@H]2CN(c3cc4c(cc3F)C(=O)N(C3CCC(=O)NC3=O)C4=O)C[C@@H]21 (stereo partly drawn) [Compound 168],< 10,> 80,
N#Cc1ccc(O[C@H]2CC[C@H](NC(=O)c3nnc(N4CCC(CN5CCC6(CC5)CN(c5cc7c(cc5F)C(=O)N(C5CCC(=O)NC5=O)C7=O)C6)CC4)s3)CC2)cc1Cl (stereo partly drawn) [Compound 244],< 10,,Dmax: > 80%
"N#Cc1ccc(O[C@H]2CC[C@H](NC(=O)c3ccc(N4CC5(CCN(CC6CCN(c7ccc8c(c7)C(=O)N(C7CCC(=O)NC7=O)C8=O)CC6)CC5)C4)cc3)CC2)cc1Cl (stereo partly drawn) [Compound 194, N-((1r,4r)-4-(3-chloro-4-cyanophenoxy)cyclohexyl)-4-(7-((1-(2-(2,6-dioxopiperidin-3-yl)-1,3-dioxoisoindolin-5-yl)piperidine-4-yl)methyl)-2,7-diazaspiro[3.5]nonan-2-yl)benzamide]",< 10,> 80,
[2H]C([2H])([2H])Oc1cc(O[C@H]2C(C)(C)[C@H](N3Cc4nc(C#C[C@H]5CC[C@H](N6CCN(c7ccc8c(c7)C(=O)N(C7CCC(=O)NC7=O)C8=O)CC6)CC5)ccc4C3=O)C2(C)C)ccc1C#N (stereo partly drawn) [Compound 429],,,"DC50 (AR degradation, VCaP cells, 16 h, ELISA, Table 3-2): < 10 nM; Dmax (AR degradation, VCaP cells, 16 h, ELISA, Table 3-2, read-out: Dmax (%)): > 80%"
N#Cc1ccc(O[C@H]2CC[C@H](NC(=O)c3ccc(N4CC5(CN(CC6CCN(c7cc8c(cc7F)C(=O)N(C7CCC(=O)NC7=O)C8=O)CC6)C5)C4)nn3)CC2)cc1Cl (stereo partly drawn) [Compound 124],< 10,> 80,
"N#Cc1ccc(O[C@H]2CC[C@H](NC(=O)c3ccc(N4CCC(N5CC6(CCN(c7cc8c(cc7F)C(=O)N(C7CCC(=O)NC7=O)C8=O)CC6)C5)CC4)nc3)CC2)cc1Cl (stereo partly drawn) [Compound 77, N-((1r,4r)-4-(3-chloro-4-cyanophenoxy)cyclohexyl)-6-(4-(7-(2-(2,6-dioxopiperidin-3-yl)-6-fluoro-1,3-dioxoisoindolin-5-yl)-2,7-diazaspiro[3.5]nonan-2-yl)piperidin-1-yl)nicotinamide]",< 10,> 80,
N#Cc1ccc(O[C@H]2CC[C@H](NC(=O)c3ccc(N4CC5CC4CN5C[C@H]4[C@@H]5CN(c6cc7c(cc6F)C(=O)N(C6CCC(=O)NC6=O)C7=O)C[C@@H]54)nn3)CC2)cc1Cl (stereo partly drawn) [Compound 237],100 to 300,40 to 60,
"CC1(C)[C@H](Oc2ccc(C#N)c(Cl)c2)C(C)(C)[C@H]1N1Cc2nc(C#CC3CCC(N4CC5(CCN(c6ccc7c(c6)C(=O)N(C6CCC(=O)NC6=O)C7=O)C5)C4)CC3)ccc2C1=O (stereo partly drawn) [Compound 369, 2-Chloro-4-((1r,3r)-3-(2-((4-(6-(2-(2,6-dioxopiperidin-3-yl)-1,3-dioxoisoindolin-5-yl)-2,6-diazaspiro[3.4]octane-2-yl)cyclohexyl)ethynyl)-5-oxo-5,7-dihydro-pyrrolo[3,4-b]pyridin-6-yl)-2,2,4,4-tetramethylcyclobutoxy) benzonitrile]",10 to 100,,Dmax (%) [1]: +++ (80%-60%)
"N#Cc1ccc(OC2CCC(NC(=O)c3cnc(N4CC5(CCN(CC6CCN(c7cc8c(cc7F)C(=O)N(C7CCC(=O)NC7=O)C8=O)CC6)CC5)C4)cn3)CC2)cc1Cl (stereo not drawn) [Compound 235, N-((1r,4r)-4-(3-chloro-4-cyanophenoxy)cyclohexyl)-5-(7-((1-(2-(2,6-dioxopiperidin-3-yl)-6-fluoro-1,3-dioxoisoindolin-5-yl)piperidine-4-yl)methyl)-2,7-diazaspiro[3.5]nonan-2-yl)pyrazine-2-carboxamide]",< 10,> 80,
"N#Cc1ccc(OC2CCC(NC(=O)c3cnc(N4CCC(CN5CC6(CCN(c7cc8c(cc7F)C(=O)N(C7CCC(=O)NC7=O)C8=O)CC6)C5)CC4)cn3)CC2)cc1Cl (stereo not drawn) [Compound 234, N-((1r,4r)-4-(3-chloro-4-cyanophenoxy)cyclohexyl)-5-(4-((7-(2,6-dioxopiperidin-3-yl)-6-fluoro-1,3-dioxoisoindolin-5-yl)-2,7-diazaspiro[3.5]nonan-2-yl)methyl)piperidin-1-yl)pyrazine-2-carboxamide]",< 10,> 80,
"N#Cc1ccc(OC2CCC(NC(=O)c3ncn(C4CCC(CN5CCC6(CC5)CN(c5ccc7c(c5)C(=O)N(C5CCC(=O)NC5=O)C7=O)C6)CC4)n3)CC2)cc1Cl [Compound 84, N-((1r,4R)-4-(3-chloro-4-cyanophenoxy)cyclohexyl)-1-(1r,4R)-4-((2-(2-(2,6-dioxopiperidin-3-yl)-1,3-dioxoisoindolin-5-yl)-2,7-diazaspiro[3.5]nonan-7-yl)methyl)cyclohexyl)-1H-1,2,4-triazole-3-carboxamide]",< 10,,Dmax (%) [1]: ++++ (>80%)
N#Cc1ccc(O[C@H]2CC[C@H](NC(=O)c3cnn([C@H]4CC[C@H](CN5CCC6(CC5)CN(c5cc7c(cc5F)C(=O)N(C5CCC(=O)NC5=O)C7=O)C6)CC4)n3)CC2)cc1Cl (stereo partly drawn) [Compound 117],100 to 300,> 80,
CC1(C)[C@H](Oc2ccc(C#N)c(Cl)c2)C(C)(C)[C@H]1N1Cc2nc(C#CC3CCC(N4CCC5(CC4)CN(c4ccc6c(c4)C(=O)N(C4CCC(=O)NC4=O)C6=O)C5)CC3)ccc2C1=O (stereo partly drawn) [Compound 362],< 10,> 80,
CN(C1CCN(c2ccc(C(=O)N[C@H]3CC[C@H](Oc4ccc(C#N)c(Cl)c4)CC3)nn2)CC1)C1CCN(c2cc3c(cc2F)C(=O)N(C2CCC(=O)NC2=O)C3=O)CC1 (stereo partly drawn) [Compound 119],< 10,,Dmax: > 80%
N#Cc1ccc(O[C@H]2CC[C@H](NC(=O)c3cnc(N4CC5CC4CN5C[C@H]4[C@@H]5CN(c6cc7c(cc6F)C(=O)N(C6CCC(=O)NC6=O)C7=O)C[C@@H]54)cn3)CC2)cc1Cl (stereo partly drawn) [Compound 238],10 to 100,40 to 60,
